Measurements reported in ChEMBL document CHEMBL3045332, “Synthesis of some new 2,6-disubstituted-3(2H)-pyridazinone derivatives and investigation of their analgesic, anti-inflammatory and antimicrobial activities” (Med Chem Res, 2013).
Values after ≈ are worked out from the molar mass of the structure shown.

How the values were obtained:
[1] = system: Pseudomonas aeruginosa; test: Antibacterial activity against Pseudomonas aeruginosa cloinical isolate after 24 hr by two-fold serial dilution method; assay type: functional
[2] = system: Escherichia coli; test: Antibacterial activity against Escherichia coli clinical isolate expressing extended spectrum beta-lactamase after 24 hr by two-fold serial dilution method; assay type: functional
[3] = system: Staphylococcus aureus; test: Antibacterial activity against methicillin-resistant Staphylococcus aureus clinical isolate after 24 hr by two-fold serial dilution method; assay type: functional
[4] = system: Mus musculus; test: Analgesic activity in Swiss albino Mus musculus (mouse) assessed as inhibition of p-benzoquinone-induced writhing at 100 mg/kg, po administered 60 min prior to p-benzoquinone-challenge measured up to 15 min relative to control; assay type: functional
[5] = system: Mus musculus; test: Anti-inflammatory activity in Swiss albino Mus musculus (mouse) assessed as inhibition of carrageenan-induced paw edema at 100 mg/kg, po administered 60 min prior to crrageenan-challenge measured at 270 min relative to control; assay type: functional
[6] = system: Pichia kudriavzevii; test: Antifungal activity against Pichia kudriavzevii ATCC 6258 after 48 hr by two-fold serial dilution method; assay type: functional; details: ATCC 6258, 48 h
[7] = system: Escherichia coli; test: Antibacterial activity against Escherichia coli ATCC 25922 after 24 hr by two-fold serial dilution method; assay type: functional; details: ATCC 25922, 24 h
[8] = system: Enterococcus faecalis; test: Antibacterial activity against Enterococcus faecalis ATCC 29212 after 24 hr by two-fold serial dilution method; assay type: functional; details: ATCC 29212, 24 h
[9] = system: Mus musculus; test: Anti-inflammatory activity in Swiss albino Mus musculus (mouse) assessed as inhibition of carrageenan-induced paw edema at 100 mg/kg, po administered 60 min prior to crrageenan-challenge measured at 360 min relative to control; assay type: functional
[10] = system: Candida albicans; test: Antifungal activity against Candida albicans ATCC 10231 after 48 hr by two-fold serial dilution method; assay type: functional; details: ATCC 10231, 48 h
[11] = system: Mus musculus; test: Ulcerogenic activity in p-benzoquinone-challenged Swiss albino Mus musculus (mouse) at 100 mg/kg, po administered 60 min prior to p-benzoquinone-challenge by microscopic analysis; assay type: toxicity, organism-based; set-up: dose 100 mg/kg, route oral; details: in vivo, 1 h
[12] = system: Pseudomonas aeruginosa; test: Antibacterial activity against Pseudomonas aeruginosa ATCC 27853 after 24 hr by two-fold serial dilution method; assay type: functional; details: ATCC 27853, 24 h
[13] = system: Staphylococcus aureus; test: Antibacterial activity against Staphylococcus aureus ATCC 29213 after 24 hr by two-fold serial dilution method; assay type: functional; details: ATCC 29213, 24 h
[14] = system: Enterococcus faecalis; test: Antibacterial activity against Enterococcus faecalis clinical isolate after 24 hr by two-fold serial dilution method; assay type: functional
[15] = system: Mus musculus; test: Anti-inflammatory activity in Swiss albino Mus musculus (mouse) assessed as inhibition of carrageenan-induced paw edema at 100 mg/kg, po administered 60 min prior to crrageenan-challenge measured at 180 min relative to control; assay type: functional
[16] = system: Mus musculus; test: Anti-inflammatory activity in Swiss albino Mus musculus (mouse) assessed as inhibition of carrageenan-induced paw edema at 100 mg/kg, po administered 60 min prior to crrageenan-challenge measured at 90 min relative to control; assay type: functional
[17] = system: Mus musculus; test: Anti-inflammatory activity in Swiss albino Mus musculus (mouse) assessed as inhibition of carrageenan-induced paw edema at 10 mg/kg, po administered 60 min prior to crrageenan-challenge measured at 360 min relative to control; assay type: functional
[18] = system: Mus musculus; test: Anti-inflammatory activity in Swiss albino Mus musculus (mouse) assessed as inhibition of carrageenan-induced paw edema at 10 mg/kg, po administered 60 min prior to crrageenan-challenge measured at 180 min relative to control; assay type: functional
[19] = system: Mus musculus; test: Anti-inflammatory activity in Swiss albino Mus musculus (mouse) assessed as inhibition of carrageenan-induced paw edema at 10 mg/kg, po administered 60 min prior to crrageenan-challenge measured at 90 min relative to control; assay type: functional
[20] = system: Mus musculus; test: Anti-inflammatory activity in Swiss albino Mus musculus (mouse) assessed as inhibition of carrageenan-induced paw edema at 10 mg/kg, po administered 60 min prior to crrageenan-challenge measured at 270 min relative to control; assay type: functional

Compound	MIC [1] [µg/mL]	MIC [2] [µg/mL]	MIC [3] [µg/mL]	inhibition in vivo at 100 mg/kg [4] [%]	inhibition in vivo at 100 mg/kg [5] [%]	MIC [6] [µg/mL]	MIC [7] [µg/mL]	MIC [8] [µg/mL]	inhibition in vivo at 100 mg/kg [9] [%]	MIC [10] [µg/mL]	Activity [11]	MIC [12] [µg/mL]	MIC [13] [µg/mL]	MIC [14] [µg/mL]	inhibition in vivo at 100 mg/kg [15] [%]	inhibition in vivo at 100 mg/kg [16] [%]	inhibition in vivo at 10 mg/kg [17] [%]	inhibition in vivo at 10 mg/kg [18] [%]	inhibition in vivo at 10 mg/kg [19] [%]	inhibition in vivo at 10 mg/kg [20] [%]
O=c1ccc(-c2ccc(Cl)cc2)nn1CCN1CCN(c2ccc(Cl)cc2)CC1	64 (≈ 149 µM)	64 (≈ 149 µM)	128 (≈ 298 µM)	53.2	31	32 (≈ 74.5 µM)	64 (≈ 149 µM)	64 (≈ 149 µM)	28.2	32 (≈ 74.5 µM)	Non-toxic	64 (≈ 149 µM)	64 (≈ 149 µM)	64 (≈ 149 µM)	29.7	20.6				
COc1ccc(-c2ccc(=O)n(CCN3CCN(c4ccc(Cl)cc4)CC3)n2)cc1	64 (≈ 151 µM)	64 (≈ 151 µM)	128 (≈ 301 µM)	44.4	27.5	32 (≈ 75.3 µM)	64 (≈ 151 µM)	64 (≈ 151 µM)	26.2	32 (≈ 75.3 µM)	Toxic	64 (≈ 151 µM)	64 (≈ 151 µM)	64 (≈ 151 µM)	19.8	16.9				
CC1(C)S[C@@H]2[C@H](NC(=O)[C@H](N)c3ccccc3)C(=O)N2[C@H]1C(=O)O [AMPICILLIN]		64 (≈ 183 µM)	32 (≈ 91.6 µM)				8 (≈ 22.9 µM)	2 (≈ 5.72 µM)					2 (≈ 5.72 µM)	4 (≈ 11.4 µM)						
O=c1ccc(-c2ccc(Cl)cc2)nn1CCN1CCN(c2ccccc2)CC1	64 (≈ 162 µM)	64 (≈ 162 µM)	128 (≈ 324 µM)	20.1	7.4	32 (≈ 81 µM)	64 (≈ 162 µM)	64 (≈ 162 µM)		32 (≈ 81 µM)	Non-toxic	64 (≈ 162 µM)	64 (≈ 162 µM)	64 (≈ 162 µM)	1.4					
OC(Cn1cncn1)(Cn1cncn1)c1ccc(F)cc1F [FLUCONAZOLE]						64 (≈ 209 µM)				1 (≈ 3.27 µM)										
CC(=O)Oc1ccccc1C(=O)O [ASPIRIN]				45.9							Toxic									
COc1ccc2c(c1)c(CC(=O)O)c(C)n2C(=O)c1ccc(Cl)cc1 [INDOMETHACIN]																	39.4	36.9	25.3	37.6
C[C@@H]1[C@H](O)[C@@H](C)/C=C/C=C/C=C/C=C/C=C/C=C/C=C/[C@H](O[C@@H]2O[C@H](C)[C@@H](O)[C@H](N)[C@@H]2O)C[C@@H]2O[C@](O)(C[C@@H](O)C[C@@H](O)[C@H](O)CC[C@@H](O)C[C@@H](O)CC(=O)O[C@H]1C)C[C@H](O)[C@H]2C(=O)O [AMPHOTERICIN B]						0.5 (≈ 0.541 µM)				< 0.25										
O=c1ccc(-c2ccccc2)nn1CCN1CCN(c2ccccc2)CC1	64 (≈ 178 µM)	64 (≈ 178 µM)	128 (≈ 355 µM)	10.7	6.4	32 (≈ 88.8 µM)	64 (≈ 178 µM)	64 (≈ 178 µM)	3.1	32 (≈ 88.8 µM)	Non-toxic	64 (≈ 178 µM)	64 (≈ 178 µM)	64 (≈ 178 µM)						
